Experimental data from article PMC8443597, “A prostate-specific membrane antigen activated molecular rotor for real-time fluorescence imaging” (Nature Communications, 2021).

Tests used:
[1] = biological target: T1, prostate-specific membrane antigen (PSMA) (Homo sapiens, UniProt Q04609); test: X-ray crystal structure ([…] Å); fluorescence saturation binding; IC50 from […]H-NAAG radioenzymatic assay; format: biochemical
T1 construct: gene FOLH1; extracellular domain of human PSMA (rhPSMA; amino acids 44–750)

[2] = biological target: T1, prostate-specific membrane antigen (PSMA); test: fluorescence saturation binding ([…]) with rhPSMA; IC50 from […]H-NAAG radioenzymatic assay; format: biochemical

T1 sequence (Q04609 44-750): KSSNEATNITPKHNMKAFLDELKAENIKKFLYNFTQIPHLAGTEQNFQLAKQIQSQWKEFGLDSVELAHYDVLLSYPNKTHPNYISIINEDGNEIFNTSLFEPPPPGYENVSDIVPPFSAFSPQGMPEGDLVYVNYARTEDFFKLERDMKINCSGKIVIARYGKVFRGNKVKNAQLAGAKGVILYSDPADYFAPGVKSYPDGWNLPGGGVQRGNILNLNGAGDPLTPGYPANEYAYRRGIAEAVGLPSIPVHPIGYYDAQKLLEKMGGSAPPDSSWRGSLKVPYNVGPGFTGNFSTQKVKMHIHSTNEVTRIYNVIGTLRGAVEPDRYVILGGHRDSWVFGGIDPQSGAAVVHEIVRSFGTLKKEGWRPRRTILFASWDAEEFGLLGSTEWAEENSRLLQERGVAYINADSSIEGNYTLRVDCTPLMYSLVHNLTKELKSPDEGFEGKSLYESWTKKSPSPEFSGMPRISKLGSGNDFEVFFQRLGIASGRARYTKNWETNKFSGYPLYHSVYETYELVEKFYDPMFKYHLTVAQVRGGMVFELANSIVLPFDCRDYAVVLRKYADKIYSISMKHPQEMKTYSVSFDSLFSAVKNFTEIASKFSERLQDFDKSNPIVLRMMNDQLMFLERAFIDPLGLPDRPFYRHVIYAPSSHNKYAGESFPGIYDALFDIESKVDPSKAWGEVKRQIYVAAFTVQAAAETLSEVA

| IC50 [1] | IC50 [2] | Structure (SMILES) |
| --- | --- | --- |
| 0.0631 nM |  | COC(=O)CCN1CCCc2cc(-c3ccc(C=C(C#N)C(=O)NCCCC[C@H](NC(=O)N[C@@H](CCC(=O)O)C(=O)O)C(=O)O)s3)ccc21 [Glu-490, (((S)-1-carboxy-5-(2-cyano-3-(5-(1-(3-methoxy-3-oxopropyl)-1,2,3,4-tetrahydroquinolin-6-yl)thiophen-2-yl)acrylamido)pentyl)carbamoyl)-L-glutamic acid] |
|  | 0.118 nM | COC(=O)CCN1CCCc2cc(C=C(C#N)C(=O)NCCCC[C@H](NC(=O)N[C@@H](CNC(=O)C(=O)O)C(=O)O)C(=O)O)ccc21 [ODAP-436, (4 S,8 S)-15-cyano-16-(1-(3-methoxy-3-oxopropyl)-1,2,3,4-tetrahydroquinolin-6-yl)-1,6,14-trioxo-2,5,7,13-tetraazahexadec-15-ene-1,4,8-tricarboxylic acid] |
|  | 0.0996 nM | COC(=O)CCN1CCCc2cc(-c3ccc(C=C(C#N)C(=O)NCCCC[C@H](NC(=O)N[C@@H](CNC(=O)C(=O)O)C(=O)O)C(=O)O)s3)ccc21 [ODAP-490, (4 S,8 S)-15-cyano-16-(5-(1-(3-methoxy-3-oxopropyl)-1,2,3,4-tetrahydroquinolin-6-yl)thiophen-2-yl)-1,6,14-trioxo-2,5,7,13-tetraazahexadec-15-ene-1,4,8-tricarboxylic acid] |
